These results are taken from patent publication US10639287B2, “Compounds for the treatment of mitochondrial diseases” (UNIVERSITE PARIS-SUD, priority 2014, dated 2020).

Experiment [1] concerns homozygous TB2143 nematodes (polg-1(ok1548Δ/Δ)). In words: Gonad and/or intestinal extrusion (premature death) of homozygous nematodes. Conditions: 50 μM, until 7th day of adulthood. The experiment is classed as in vivo, Caenorhabditis elegans. Here is the method: Ten homozygous TB2143 larvae (polg-1(ok1548Δ/Δ)) at stage L4 were deposited on each NGM dish containing either DMSO or 50 μM clofilium tosylate (three dishes for each treatment group) and incubated at 20° C. Their survival was monitored until the 7th day of adulthood. The number of dead animals, not responding to any stimulation, and having intestinal and/or gonad extrusion was counted. The few animals that died of dehydration at the edge of the petri dishes were excluded from the analysis.

The subject of experiment [2] is neuronal cybrids derived from a MELAS patient (m.3243A>G tRNA^Leu mutation). Kind of experiment: Lactate production of MELAS neuronal cybrids. The experiment is classed as cell-based, human. Conditions: 300 nM, 48 hours. The protocol:
The increase in the lactate production is the result of a toxicity of the drug used, but also of a mitochondrial dysfunction (energy deficiency) present in MELAS syndrome.
Neuronal cybrid lines carrying the MELAS mutation and the parental control line were grown in sterile culture flasks and incubated at 37° C. with 5% CO2 in a medium composed of DMEM with 1.5 g/L glucose, 2 mM L-glutamine and supplemented with 10% foetal bovine serum as well as uridine (5 μg/ml) and pyruvate (10 μg/mL). The cells were harvested by trypsinisation in exponential phase and were used for subsequent biochemical or molecular mitochondrial analyses.
The MELAS neuronal cybrid line carrying the mutation seemingly in the homoplasmic state (i.e. reaching almost 100% MELAS mutation) and the SHSY-5Y parental control line were used for measurements of enzyme activities. […] These cell pellets were then analysed by spectrophotometry with measurement of the different mitochondrial biochemical activities, particularly the activity of citrate synthase and the activity of complex I of the respiratory chain. […]
The lactate concentration of the culture medium for neuronal cybrid and parental cells was determined by spectrophotometry using an enzymatic kit (Bohringer) on a Hitachi-Roche apparatus (Roche Diagnostics GmbH). […]

Experiment [3] has as its system fibroblasts from a patient with a mutation on each allele of the POLG gene. In words: Amount of mtDNA (qPCR) in patient fibroblasts, quiescent conditions. The experiment is classed as cell-based, human. The protocol: Skin fibroblasts from the control and from the patient were cultured to 100% confluence in DMEM at 37° C. under 5% CO2. At 100% confluence, the fibroblasts were washed with PBS and the quiescent medium was added (4.5 g/L D-glucose, 110 mg/L sodium pyruvate, 0.1% foetal bovine serum, 1% penicillin/streptomycin from the stock solution containing 10,000 I.U. penicillin and 10,000 μg/mL streptomycin). After four days in quiescent medium, […] or DMSO (0.1%) was added to the culture medium. The treatment was carried out for 18 days, changing the culture medium with or without clofilium tosylate every three days. […] The mtDNA and nuclear DNA were quantified by qPCR (Sarzi, E., Bourdon, A., Chrétien, D., Zarhrate, M., Corcos, J., Slama, A., Cormier-Daire, V., De Lonlay, P., Munnich, A. and Rötig, A. (2007) Mitochondrial DNA Depletion is a Prevalent Cause of Multiple Respiratory Chain Deficiency in Childhood. J Pediatr, 105, 531-534).
Skin fibroblasts from the patient were cultured to 100% confluence in DMEM at 37° C. under 5% CO2. […] The mtDNA and nuclear DNA were quantified by qPCR (Sarzi, E., Bourdon, A., Chrétien, D., Zarhrate, M., Corcos, J., Slama, A., Cormier-Daire, V., De Lonlay, P., Munnich, A. and Rötig, A. (2007) Mitochondrial DNA Depletion is a Prevalent Cause of Multiple Respiratory Chain Deficiency in Childhood. J Pediatr, 105, 531-534).

Consider `CCCCCCC[N+](CC)(CC)CCCCc1ccc(Cl)cc1.Cc1ccc(S(=O)(=O)[O-])cc1` [clofilium tosylate], for which the “premature death by gonad and/or intestinal extrusion” value in experiment [1] is “reduced”. In addition, in experiment [2], the production of lactate entry is “without increasing”. Further, in experiment [3] (Example 14, 18-day treatment), the “amount of mtDNA, quiescent conditions” value is “increased”. The “amount of mtDNA, quiescent conditions, dose-response” value in experiment [3] (Example 25, concentrations of 0.5 μM and 1 μM, 18-day treatment) was “increased”.
